By thermodynamic solubility is commonly meant the concentration in solution at equilibrium with solid.

Consider 3 compounds from patent publication EP0165696A2, “Improved transdermal dosage form” (priority 1984, dated 1985).

≈ marks a conversion by molar mass, not a printed value.

Data set [1] can be described thus: Equilibrium solubility of active ingredients in solvents. Type of data set: physicochemical. Particulars: organic solvent or mixture, 34 °C. As for the experimental part: An exact amount of saturated solution is withdrawn into a volumetric flask while maintaining temperature. The saturated solution is diluted in suitable solvent and the content of active ingredient measured by high pressure liquid chromatography or other suitable analytical method.

The nature of data set [2]: In vitro penetration of drug across cadaver skin, modified Franz diffusion cell. In kind it is in vitro ADME, human.
Method: The rate of penetration and lag time are determined by studying in vitro the penetration of the drug across cadaver skin, hairless mouse skin or other suitable membrane.
A measured portion of each of the formulations 1A-E was applied to the surface of the cadaver skin. The appearance of drug on the dermal side was monitored quantitatively over six days.
Using formulation 2B, four skin samples from the same person were used to determine the average flux. Using formulation 2C, skin samples from four different people were used to determine the average flux.
All formulations were gelled using 6.5 percent by weight of sodium stearate.
A measured portion of each formulation,8A & B, was applied to the surface of the cadaver skin. The appearance of drug on the dermal side was monitored quantitatively over six days.

Take `N=C(N)N/N=C/c1c(Cl)cccc1Cl` [Guanabenz]: the thermodynamic solubility was 21.2 mg/mL (≈ 91.7 mM) in data set [1] (35/65 propylene glycol/glycerine, 35/65PG/Gly); 29.4 mg/mL (≈ 127 mM) in data set [1] (50/50 propylene glycol/glycerine, 50/50PG/Gly); 7.97 mg/mL (≈ 34.5 mM) in data set [1] (Glycerine); 47 mg/mL (≈ 203 mM) in data set [1] (Propylene Glycol).

Turning to `C[C@]12CC[C@@H]3c4ccc(O)cc4CC[C@H]3[C@@H]1CC[C@@H]2O` [17-beta-estradiol], the “increase in rate of penetration” value in data set [2] (mixed solvent system compared to the pure solvents alone, cadaver skin) was in the range of 3 to 4 times.

With `C#C[C@]1(O)CC[C@H]2[C@@H]3CCC4=CC(=O)CC[C@@H]4[C@H]3CC[C@@]21CC` [Levo-norgestrel], the “rate of penetration enhanced” value in data set [2] (levonorgestrel, by 10 weight percent of propylene glycol and glycerine combination) is given as 2.7 times.
